This is an account of results in patent US8883826B2, “Alkynyl derivatives as modulators of metabotropic glutamate receptors” (Addex Pharma SA, priority 2004, dated 2014).

One data set has as its target T1, mGluR5 (Rattus norvegicus, UniProt P31424).
T1 construct: tissue Charles River Laboratories; host or cells: rat brain cortex membranes (Sprague-Dawley)
Put plainly: mGluR5 binding assay ([3H]-MPEP radioligand competition). The note with it: competition with 3 nM [3H]-MPEP, rat brain cortical membranes, 1 h at 4 °C; mean of at least three independent experiments in duplicate. The essentials: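 Rat cortical membranes (50 μg) were incubated 1 h at 4 °C with 3 nM [3H]-MPEP and compound (0.003 nM-30 μM, 8 points) in HEPES buffer pH 7.4 with Mg2+, Ca2+ and NaCl. 30 μM MPEP defined non-specific binding, and bound label was counted after filtration. IC50 came from non-linear regression, as the mean of ≥3 experiments run in duplicate.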
(In a radioligand displacement assay an active substance lowers the binding of a labelled ligand.)

T1 sequence (P31424 21-1203): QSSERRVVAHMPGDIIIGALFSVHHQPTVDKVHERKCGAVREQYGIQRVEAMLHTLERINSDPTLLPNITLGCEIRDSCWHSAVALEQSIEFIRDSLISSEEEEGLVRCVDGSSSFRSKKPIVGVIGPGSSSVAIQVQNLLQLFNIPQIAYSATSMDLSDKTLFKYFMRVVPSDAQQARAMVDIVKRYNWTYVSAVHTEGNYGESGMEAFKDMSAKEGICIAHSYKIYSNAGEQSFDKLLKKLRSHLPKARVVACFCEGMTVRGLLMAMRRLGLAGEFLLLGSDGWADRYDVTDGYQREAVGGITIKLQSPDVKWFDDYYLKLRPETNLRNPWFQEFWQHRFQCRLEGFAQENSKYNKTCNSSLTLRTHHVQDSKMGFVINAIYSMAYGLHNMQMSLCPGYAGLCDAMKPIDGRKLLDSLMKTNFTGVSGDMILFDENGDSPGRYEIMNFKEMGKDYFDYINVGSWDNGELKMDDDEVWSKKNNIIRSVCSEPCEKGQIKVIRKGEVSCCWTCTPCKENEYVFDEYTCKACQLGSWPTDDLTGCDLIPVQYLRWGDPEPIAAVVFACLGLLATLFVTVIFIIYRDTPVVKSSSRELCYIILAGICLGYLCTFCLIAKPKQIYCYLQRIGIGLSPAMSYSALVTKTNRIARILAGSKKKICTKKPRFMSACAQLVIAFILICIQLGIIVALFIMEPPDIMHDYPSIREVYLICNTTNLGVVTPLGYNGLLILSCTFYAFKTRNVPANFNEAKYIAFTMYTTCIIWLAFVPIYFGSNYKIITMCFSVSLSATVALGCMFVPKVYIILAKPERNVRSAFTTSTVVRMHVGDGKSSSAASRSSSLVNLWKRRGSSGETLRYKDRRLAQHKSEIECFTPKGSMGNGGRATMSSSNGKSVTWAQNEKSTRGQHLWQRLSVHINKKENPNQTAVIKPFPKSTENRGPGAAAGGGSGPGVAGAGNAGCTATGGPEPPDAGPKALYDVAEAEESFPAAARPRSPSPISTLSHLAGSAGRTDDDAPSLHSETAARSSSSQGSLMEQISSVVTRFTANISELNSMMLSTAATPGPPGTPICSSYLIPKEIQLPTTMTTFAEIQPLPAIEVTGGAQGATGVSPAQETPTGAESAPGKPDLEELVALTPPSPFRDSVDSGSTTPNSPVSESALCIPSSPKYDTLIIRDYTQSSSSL

A word on the IC50: it is the concentration that inhibits the measured activity by half. Low values mean greater potency in that assay, high ones weaker potency in that assay. In general, melting point refers to the temperature of the solid-liquid transition. As to `C(#Cc1ccccn1)CCc1nc2ccccc2o1.Cl` [Example 8, 2-(4-(Pyridin-2-yl)but-3-ynyl)benzo[d]oxazole Hydrochloride], the melting point was 143.5 to 145 °C. This compound also displayed a 50% inhibitory concentration (IC50) on mGluR5 below 0.05 µM. For the compound `CN(C(=O)CCC#Cc1ccccn1)c1ccccc1` [Example 12, N-Methyl-N-phenyl-5-(pyridin-2-yl)pent-4-ynamide], the melting point was in the range of 68 to 71 °C. At mGluR5, this compound registered a half-inhibitory concentration (IC50) below 10 µM.

In turn, `C(#Cc1ccccn1)CCn1nnc(-c2ccccc2)n1` [Example 32, 2-(4-(5-Phenyl-2H-tetrazol-2-yl)but-1-ynyl)pyridine] registered a melting point of 71 to 73 °C. This compound yielded a half-inhibitory concentration (IC50) at mGluR5 below 10 µM. For the compound `O=C(CCC#Cc1ccccn1)Nc1ccc(F)cc1` [Example 34, N-(4-Fluorophenyl)-5-(pyridine-2-yl)pent-4-ynamide], the melting point is 189.9 to 190.2 °C. For the same compound, the IC50 at mGluR5 is below 1 µM.

Compound `C(#Cc1ccccn1)CCc1nc2ccccc2s1` [Example 35, 2-(4-(Pyridin-2-yl)but-3-ynyl)benzo[d]thiazole] had a melting point of 98.5 to 99.4 °C. Moreover, the IC50 on mGluR5 was below 0.05 µM.

On to `Clc1ccc2nc(CCC#Cc3ccccn3)oc2c1` [Example 36, 6-Chloro-(2-(4-pyridin-2-yl)but-3-ynyl)benzo[d]oxazole], for which the melting point was 101.5 to 102.2 °C. The same compound had a 50% inhibitory concentration (IC50) at mGluR5 below 10 µM. The compound `Fc1ccc2oc(CCC#Cc3ccccn3)nc2c1` [Example 37, 5-Fluoro-(2-(4-pyridin-2-yl)but-3-ynyl)benzo[d]oxazole] gave a melting point of 100.1 to 101 °C. The compound further yielded a concentration for half-maximal inhibition (IC50) on mGluR5 below 10 µM. `Fc1ccc(C#CCCC#Cc2ccccn2)cc1` [Example 38, 2-(6-(4-Fluorophenyl)hexa-1,5-diynyl)pyridine] showed a melting point of 68 to 69 °C. The same compound came in with an IC50 at mGluR5 below 10 µM.

Take `Clc1ccc(-c2noc(CCC#Cc3ccccn3)n2)cc1` [Example 47, 2-(4-(3-(4-Chlorophenyl)-1,2,4-oxadiazol-5-yl)but-1-ynyl)pyridine]: the melting point was 75 to 77 °C. At mGluR5, this compound returned a 50% inhibitory concentration (IC50) below 10 µM. Consider `C(#Cc1ccccn1)CCc1nc(-c2ccc3ccccc3c2)no1` [Example 51, 2-(4-(3-(Naphthalen-2-yl)-1,2,4-oxadiazol-5-yl)but-1-ynyl)pyridine], for which the melting point is 76 to 78 °C. Further, the half-maximal inhibitory concentration (IC50) on mGluR5 was below 10 µM.

In turn, `Clc1ccc(-c2noc(CCC#Cc3ccccn3)n2)c(Cl)c1` [Example 57, 2-(4-(3-(2,4-Dichlorophenyl)-1,2,4-oxadiazol-5-yl)but-1-ynyl)pyridine] showed a melting point of 77 to 78 °C. Also, the IC50 at mGluR5 was below 10 µM. In the same order, the values of `Cc1ccc(F)cc1-c1noc(CCC#Cc2ccccn2)n1` [Example 59, 2-(4-(3-(5-Fluoro-2-methylphenyl)-1,2,4-oxadiazol-5-yl)but-1-ynyl)pyridine] are 90 to 91 °C and below 10 µM. In the same order, the values of `Cc1ccc(Cl)cc1-c1noc(CCC#Cc2ccccn2)n1` [Example 60, 2-(4-(3-(5-Chloro-2-methylphenyl)-1,2,4-oxadiazol-5-yl)but-1-ynyl)pyridine] are 66 to 68 °C and below 10 µM. On to `Fc1cc(F)c2oc(CCC#Cc3ccccn3)nc2c1` [Example 89, 5,7-Difluoro-2-(4-(pyridin-2-yl)but-3-ynyl)benzo[d]oxazole], for which the melting point was in the range of 93.5 to 94 °C. The compound further registered an IC50 on mGluR5 below 0.05 µM.

In turn, `Fc1cccc2oc(CCC#Cc3ccccn3)nc12` [Example 90, 4-Fluoro-2-(4-(pyridin-2-yl)but-3-ynyl)benzo[d]oxazole] displayed a melting point of 89 to 89.5 °C. At mGluR5, the IC50 is below 0.05 µM. In the same order, the values of `N#Cc1cccc2nc(CCC#Cc3ccccn3)oc12` [Example 92, 2-(4-(Pyridin-2-yl)but-3-ynyl)benzo[d]oxazole-7-carbonitrile] are 126 to 126.5 °C and below 0.05 µM.

The compound `Fc1ccc(Cl)c2oc(CCC#Cc3ccccn3)nc12` [Example 93, 7-Chloro-4-fluoro-2-(4-(pyridin-2-yl)but-3-ynyl)benzo[d]oxazole] showed a melting point of 102 to 103 °C. For the same compound, the 50% inhibitory concentration (IC50) at mGluR5 is below 0.05 µM. In the same order, the values of `O=c1n(CCC#Cc2cccc(CF)n2)nc2ccccn12` [Example 120, 2-(4-(6-(Fluoromethyl)pyridin-2-yl)but-3-ynyl)-[1,2,4]triazolo[4,3-a]pyridin-3(2H)-one] are 106 to 107 °C and below 10 µM. Take `FCc1cccc(C#CCCc2ccc3ccccc3n2)n1` [Example 126, 2-(4-(6-(Fluoromethyl)pyridin-2-yl)but-3-ynyl)quinoline]: the melting point was 70.2 to 74.3 °C. Further, the half-inhibitory concentration (IC50) at mGluR5 is below 0.05 µM.

Take `FCc1cccc(C#CCCc2cnc3ccccc3n2)n1` [Example 129, 2-(4-(6-(Fluoromethyl)pyridin-2-yl)but-3-ynyl)quinoxaline]: the melting point was 136 °C (dec.). Further, the IC50 on mGluR5 is below 0.05 µM.

`Cl.FCc1cccc(C#CCCn2nc3cc(F)cc(F)c3n2)n1` [Example 131, 4,6-Difluoro-2-(4-(6-(fluoromethyl)pyridin-2-yl)but-3-ynyl)-2H-benzo[d][1,2,3]triazole hydrochloride] came in with a melting point of 128 to 130 °C. In addition, at mGluR5, the IC50 was below 0.05 µM. With `Cl.FCc1cccc(C#CCCn2nc3ccc(F)c(F)c3n2)n1` [Example 132, 4,5-Difluoro-2-(4-(6-(fluoromethyl)pyridin-2-yl)but-3-ynyl)-2H-benzo[d][1,2,3]triazole hydrochloride], the melting point fell in the range of 157 to 159 °C. In addition, the IC50 at mGluR5 was below 0.05 µM.

The compound `FC(F)c1cccc(C#CCCn2nc3ccccc3n2)n1` [Example 134, 2-(4-(6-(Difluoromethyl)pyridin-2-yl)but-3-ynyl)-2H-benzo[d][1,2,3]triazole] registered a melting point of 101.8 to 102.9 °C. For the same compound, at mGluR5, the IC50 was below 10 µM. In the same order, the values of `FCc1cccc(C#CCCc2cnc3cc(F)c(F)cc3n2)n1` [Example 148, 6,7-Difluoro-2-(4-(6-(fluoromethyl)pyridin-2-yl)but-3-ynyl)quinoxaline] are 134.9 to 138.5 °C and below 10 µM. For `Fc1cc2nn(CCC#Cc3ccccn3)nc2cc1F` [Example 153, 5,6-Difluoro-2-(4-(pyridin-2-yl)but-3-ynyl)-2H-benzo[d][1,2,3]triazole], the melting point was in the range of 131 to 132 °C. Besides, the IC50 at mGluR5 is below 10 µM. `FCc1cccc(C#CCCn2nc3cc(F)c(F)cc3n2)n1` [Example 154, 5,6-Difluoro-2-(4-(6-(fluoromethyl)pyridin-2-yl)but-3-ynyl)-2H-benzo[d][1,2,3]triazole] had a melting point of 104 to 105 °C. This compound came in with an IC50 on mGluR5 below 10 µM. In the same order, the values of `CNc1cccc(C#CCCn2nc3ccccc3n2)n1` [Example 167, 6-(4-(2H-Benzo[d][1,2,3]triazol-2-yl)but-1-ynyl)-N-methylpyridin-2-amine] are 150 to 154 °C and below 0.5 µM. In the same order, the values of `Fc1ccc(-c2cc(CCC#Cc3ccccn3)on2)cc1` [Example 168, 2-(4-(3-(4-Fluorophenyl)isoxazol-5-yl)but-1-ynyl)pyridine] are 83 to 84 °C and below 10 µM. In the same order, the values of `CC(=O)Nc1cccc(C#CCCn2nc3ccccc3n2)n1` [Example 169, N-(6-(4-(2H-Benzo[d][1,2,3]triazol-2-yl)but-1-ynyl)pyridin-2-yl)acetamide] are 93 to 94 °C and below 10 µM. `CCNc1cccc(C#CCCn2nc3ccccc3n2)n1` [Example 170, 6-(4-(2H-Benzo[d][1,2,3]triazol-2-yl)but-1-ynyl)-N-ethylpyridin-2-amine]: the melting point lay within 73 to 78 °C. For the same compound, the concentration for half-maximal inhibition (IC50) at mGluR5 was below 10 µM.

`Fc1ccc(-c2cn(CCC#Cc3ccccn3)nn2)cc1` [Example 179, 2-(4-(4-(4-Fluorophenyl)-1H-1,2,3-triazol-1-yl)but-1-ynyl)pyridine] gave a melting point of 120 to 122 °C. At mGluR5, this compound showed an IC50 below 0.5 µM. In the same order, the values of `O=c1c2ccccc2ccn1CCC#Cc1ccccn1` [Example 183, 2-(4-(Pyridin-2-yl)but-3-ynyl)isoquinolin-1(2H)-one] are 85 to 90 °C and below 0.5 µM. `O=C(CCC#Cc1ccccn1)Nc1ccccc1F` [Example 186, N-(2-Fluorophenyl)-5-(pyridin-2-yl)pent-4-ynamide] showed a melting point of 82 to 84 °C. Besides, the IC50 on mGluR5 was below 10 µM. In the same order, the values of `O=C(CCC#Cc1ccccn1)Nc1cccc(F)c1` [Example 187, N-(3-Fluorophenyl)-5-(pyridin-2-yl)pent-4-ynamide] are 110 to 114 °C and below 10 µM.

On to `FCc1cccc(C#CCCn2ncc(-c3ccc(F)cc3)n2)n1` [Example 250, 2-(Fluoromethyl)-6-(4-(4-(4-fluorophenyl)-2H-1,2,3-triazol-2-yl)but-1-ynyl)pyridine], for which the melting point lay within 84 to 86 °C.

For `Cc1cc(F)ccc1NC(=O)CCC#Cc1cccc(CF)n1` [Example 252, 5-(6-(Fluoromethyl)pyridin-2-yl)-N-(4-fluoro-2-methyl-phenyl)pent-4-ynamide], the melting point was 122 to 125 °C.

`FCc1cccc(C#CCCn2cc(-c3ccc(F)cc3)nn2)n1` [Example 254, 2-(Fluoromethyl)-6-(4-(4-(4-fluorophenyl)-1H-1,2,3-triazol-1-yl)but-1-ynyl)pyridine] returned a melting point of 100 to 103 °C. Consider `Cc1c(-c2ccc(F)cc2)nnn1CCC#Cc1ccccn1` [Example 258, 2-(4-(4-(4-Fluorophenyl)-5-methyl-1H-1,2,3-triazol-1-yl)but-1-ynyl)pyridine], for which the melting point was 130 to 131 °C.
